Source: ChEMBL document CHEMBL1201862, “PubChem BioAssay data set” (2004)
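Tested at 5 concentrations; 48 h exposure; 96-well plates; endpoints linearly interpolated, else capped at highest concentration. Here, GI50 denotes the concentration required for 50% inhibition of growth.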 Calls of active or inactive are those of the source. Cut-off read from the data, not from the text of the source: active = GI50 up to about 1.1 µM and inactive = higher. *1 amine or outer side, *2 acyl side, *3 side chain or, on linkers, in order; H or OH if unused. Where a SMILES comes first, the peptide text is derived from it. Bridges are numbered along the chain shown (N, C = ends). Roman numbers before positions name the chains, in order. [ ]: non-standard residue; d: D form. Actinocin(9to1) = Cc1c2oc3c(C)ccc(C(=O)[*:1])c3nc-2c(C(=O)[*:2])c(N)c1=O; NMeV = CN[CH](C(=O)O)C(C)C; Sar = CNCC(=O)O

Key:
Experiment in all cases: DTP human tumour cell line panel, 48 h
A549 = test system: A549
ACHN = test system: ACHN
CCRF-CEM = test system: CCRF-CEM
COLO 205 = test system: COLO 205
EKVX = test system: EKVX
HCT-116 = test system: HCT-116
HCT-15 = test system: HCT-15
HL-60 = test system: HL-60
IGROV-1 = test system: IGROV-1
NCI-H23 = test system: NCI-H23
NCI-H522 = test system: NCI-H522
OVCAR-3 = test system: OVCAR-3
OVCAR-8 = test system: OVCAR-8
SF-268 = test system: SF-268
SF-539 = test system: SF-539
SK-MEL-2 = test system: SK-MEL-2
SN12C = test system: SN12C
TK-10 = test system: TK-10
UACC-257 = test system: UACC-257
HOP-92 = test system: HOP-92

| Structure (SMILES) | GI50 (A549) | GI50 (ACHN) | GI50 (CCRF-CEM) | GI50 (COLO 205) | GI50 (EKVX) | GI50 (HCT-116) | GI50 (HCT-15) | GI50 (HL-60) | GI50 (IGROV-1) | GI50 (NCI-H23) | GI50 (NCI-H522) | GI50 (OVCAR-3) | GI50 (OVCAR-8) | GI50 (SF-268) | GI50 (SF-539) | GI50 (SK-MEL-2) | GI50 (SN12C) | GI50 (TK-10) | GI50 (UACC-257) | GI50 (HOP-92) |
| --- | --- | --- | --- | --- | --- | --- | --- | --- | --- | --- | --- | --- | --- | --- | --- | --- | --- | --- | --- | --- |
| NN=C(S)Nc1cccc(Cl)c1 | > 100 µM (inactive) | > 100 µM (inactive) | 25.8 µM (inactive) | 89.7 µM (inactive) | > 100 µM (inactive) | 36.3 µM (inactive) | 48.2 µM | > 100 µM (inactive) | > 100 µM (inactive) | > 100 µM (inactive) | 95.9 µM (inactive) | 29.3 µM (inactive) | 81.5 µM (inactive) | > 100 µM (inactive) | > 100 µM (inactive) | 79.4 µM (inactive) | 94.4 µM (inactive) | > 100 µM (inactive) | > 100 µM (inactive) | – |
| Clc1ccc(OC2CCO2)cc1Cl (centres undefined) | > 100 µM (inactive) | 49.7 µM (inactive) | 48.3 µM (inactive) | 90.8 µM (inactive) | > 100 µM (inactive) | 33.8 µM (inactive) | 15.7 µM | 35.6 µM (inactive) | > 100 µM (inactive) | 83.8 µM (inactive) | 34.3 µM (inactive) | 57.8 µM (inactive) | 96.2 µM (inactive) | 78.2 µM (inactive) | > 100 µM (inactive) | – | 88.5 µM (inactive) | 87.7 µM (inactive) | 40 µM (inactive) | 46.3 µM (inactive) |
| CC1=C2c3ccccc3N(C(=O)/C=C/C(=O)O)[C@H]2[C@H]2C(=O)OC(=O)[C@H]2C1 | > 10 µM (inactive) | > 10 µM (inactive) | > 10 µM (inactive) | > 10 µM (inactive) | > 10 µM (inactive) | > 10 µM (inactive) | > 10 µM | > 10 µM (inactive) | > 10 µM (inactive) | > 10 µM (inactive) | > 10 µM (inactive) | > 10 µM (inactive) | > 10 µM (inactive) | > 10 µM (inactive) | > 10 µM (inactive) | > 10 µM (inactive) | > 10 µM (inactive) | > 10 µM (inactive) | – | – |
| CN(C)CC(CO)(CN(C)C)CN(C)C | > 100 µM (inactive) | > 100 µM (inactive) | > 100 µM (inactive) | > 100 µM (inactive) | > 100 µM (inactive) | > 100 µM (inactive) | > 100 µM | > 100 µM (inactive) | > 100 µM (inactive) | > 100 µM (inactive) | > 100 µM (inactive) | > 100 µM (inactive) | > 100 µM (inactive) | > 100 µM (inactive) | > 100 µM (inactive) | – | > 100 µM (inactive) | > 100 µM (inactive) | > 100 µM (inactive) | > 100 µM (inactive) |
| COC1OC2COC1(OC)C1OC(C)(C)OC21 (centres undefined) | > 100 µM (inactive) | > 100 µM (inactive) | > 100 µM (inactive) | > 100 µM (inactive) | > 100 µM (inactive) | > 100 µM (inactive) | > 100 µM | – | > 100 µM (inactive) | > 100 µM (inactive) | > 100 µM (inactive) | > 100 µM (inactive) | > 100 µM (inactive) | > 100 µM (inactive) | – | > 100 µM (inactive) | > 100 µM (inactive) | > 100 µM (inactive) | > 100 µM (inactive) | – |
| Cn1nc(-c2ccccc2)c(C(=O)/C=C/c2ccccc2)c(N2CCCC2)c1=O | 19.9 µM (inactive) | 12.6 µM (inactive) | 7.8 µM (inactive) | 14.9 µM (inactive) | 20.4 µM (inactive) | 5.94 µM (inactive) | 13.5 µM | 4.34 µM (inactive) | 21.2 µM (inactive) | 10.4 µM (inactive) | 4.83 µM (inactive) | – | 16.9 µM (inactive) | 13.7 µM (inactive) | 13.2 µM (inactive) | – | 20.7 µM (inactive) | 22.5 µM (inactive) | – | 1.64 µM (inactive) |
| O=C(CCC(NC(=O)OCc1ccccc1)C(=O)OCc1ccccc1)Nc1cccc(OCc2ccccc2)c1 (centres undefined) | 35.7 µM (inactive) | 29.7 µM (inactive) | 27.3 µM (inactive) | 15.7 µM (inactive) | 35.6 µM (inactive) | 19.2 µM (inactive) | 18.3 µM | 15.4 µM (inactive) | 30.3 µM (inactive) | 20.3 µM (inactive) | 18.7 µM (inactive) | 22.3 µM (inactive) | 26.5 µM (inactive) | 28.6 µM (inactive) | 19.2 µM (inactive) | – | 20.2 µM (inactive) | 29.4 µM (inactive) | 23.7 µM (inactive) | 25 µM (inactive) |
| CN(C)N1C(=O)C(=O)N(c2cccc3ccccc23)C1=O | > 10 µM (inactive) | > 10 µM (inactive) | > 10 µM (inactive) | > 10 µM (inactive) | > 10 µM (inactive) | > 10 µM (inactive) | > 10 µM | > 10 µM (inactive) | > 10 µM (inactive) | > 10 µM (inactive) | > 10 µM (inactive) | > 10 µM (inactive) | > 10 µM (inactive) | > 10 µM (inactive) | > 10 µM (inactive) | > 10 µM (inactive) | > 10 µM (inactive) | > 10 µM (inactive) | – | – |
| CC1(CO)COS(=O)OC1 (centres undefined) | > 100 µM (inactive) | > 100 µM (inactive) | > 100 µM (inactive) | > 100 µM (inactive) | – | > 100 µM (inactive) | > 100 µM | – | – | > 100 µM (inactive) | > 100 µM (inactive) | > 100 µM (inactive) | > 100 µM (inactive) | > 100 µM (inactive) | – | – | > 100 µM (inactive) | > 100 µM (inactive) | > 100 µM (inactive) | > 100 µM (inactive) |
| COc1ccc2c(c1)-c1oc3ccccc3c(=O)c1CO2 | 43 µM (inactive) | 28.1 µM (inactive) | 20.5 µM (inactive) | 31.4 µM (inactive) | 25 µM (inactive) | 28.8 µM (inactive) | 24.9 µM | – | 25.7 µM (inactive) | 89.5 µM (inactive) | 32.1 µM (inactive) | 31.3 µM (inactive) | 39.1 µM (inactive) | 25 µM (inactive) | 35.5 µM (inactive) | 26.3 µM (inactive) | 32.7 µM (inactive) | 45.2 µM (inactive) | 31.8 µM (inactive) | – |
| O=C1c2ccccc2C2(c3ccc(Cl)cc3)N[C@H]3CCCC[C@@H]3N12 (some centres undefined) | 77.6 µM (inactive) | > 100 µM (inactive) | 53.2 µM (inactive) | > 100 µM (inactive) | 78.3 µM (inactive) | 60.1 µM (inactive) | > 100 µM | 47.9 µM (inactive) | > 100 µM (inactive) | > 100 µM (inactive) | – | > 100 µM (inactive) | > 100 µM (inactive) | 48.8 µM (inactive) | – | – | > 100 µM (inactive) | > 100 µM (inactive) | > 100 µM (inactive) | > 100 µM (inactive) |
| OC1C2CCC3C2CC(C(O)(c2ccccc2)c2ccccc2)C13 (centres undefined) | 36.6 µM (inactive) | 33.7 µM (inactive) | 29.4 µM (inactive) | 18.5 µM (inactive) | 33.8 µM (inactive) | 36.1 µM (inactive) | 31.5 µM | – | 23.9 µM (inactive) | 44.5 µM (inactive) | 34.8 µM (inactive) | 29.9 µM (inactive) | 93.1 µM (inactive) | > 100 µM (inactive) | 38.3 µM (inactive) | 18.4 µM (inactive) | 21.9 µM (inactive) | 73.5 µM (inactive) | 24.6 µM (inactive) | 45.2 µM (inactive) |
| COc1cc(=O)oc(/C=C/C=O)c1C | > 100 µM (inactive) | 19.2 µM (inactive) | 5.36 µM (inactive) | 16.4 µM (inactive) | 35.7 µM (inactive) | 5.21 µM (inactive) | – | 13.5 µM (inactive) | 30.4 µM (inactive) | 21.9 µM (inactive) | 19.8 µM (inactive) | 19 µM (inactive) | 26.3 µM (inactive) | 13.6 µM (inactive) | 18.7 µM (inactive) | – | 8.24 µM (inactive) | 31.2 µM (inactive) | 18.9 µM (inactive) | 26.9 µM (inactive) |
| O=C(O)C(=C\c1ccc2c(c1)OCO2)/C(=C/c1ccc2c(c1)OCO2)C(=O)O | – | – | > 100 µM (inactive) | > 100 µM (inactive) | – | > 100 µM (inactive) | > 100 µM | > 100 µM (inactive) | > 100 µM (inactive) | > 100 µM (inactive) | – | > 100 µM (inactive) | > 100 µM (inactive) | – | – | > 100 µM (inactive) | > 100 µM (inactive) | > 100 µM (inactive) | > 100 µM (inactive) | > 100 µM (inactive) |
| COc1ccc(C(=O)c2c3cc(OC)c(OC)c(OC)c3cc[n+]2C)cc1 | 17.8 µM (inactive) | 26.5 µM (inactive) | 20.9 µM (inactive) | – | 55.3 µM (inactive) | 28 µM (inactive) | – | – | 34.8 µM (inactive) | 23.7 µM (inactive) | 19.2 µM (inactive) | – | 35.7 µM (inactive) | 37.9 µM (inactive) | > 10 µM (inactive) | 21.1 µM (inactive) | 31.8 µM (inactive) | 46.5 µM (inactive) | – | – |
| Cc1c2oc3c(C)ccc(C(=O)NC4C(=O)NC(C(C)O)C(=O)N5CCCC5C(=O)N(C)CC(=O)N(C)C(C(C)C)C(=O)OC4C)c3nc-2c(C(=O)NC2C(=O)NC(C(C)O)C(=O)N3CCCC3C(=O)N(C)CC(=O)N(C)C(C(C)C)C(=O)OC2C)c(N)c1=O (centres undefined) (I: TTP[Sar][NMeV] / II: TTP[Sar][NMeV]; ester I:1-I:C, II:1-II:C; linker I:N-II:N via Actinocin(9to1); configuration not given here) | 0.783 µM (active) | 0.427 µM (active) | 0.119 µM (active) | 0.0528 µM (active) | – | 0.0456 µM (active) | 7.48 µM | 0.437 µM (active) | 0.135 µM (active) | 0.274 µM (active) | 0.0766 µM (active) | 0.28 µM (active) | 0.195 µM (active) | 0.198 µM (active) | 0.0764 µM (active) | 0.133 µM (active) | 0.207 µM (active) | 0.643 µM (active) | 0.244 µM (active) | – |
